Data from paper PMC11206245 (Pharmaceuticals, 2024).
Like-named read-outs stand apart in the source and are kept apart here.

Tests used:
[1] = Study B multiple administrations of 150 mg/m^2: 17-AAG pharmacokinetics in plasma (HPLC); assay type: in vivo, dogs; settings: dog, iv; for AUC(0-t) / Cmax / half-life: both sexes, plasma, dogs, mean ± SD; for AUC(0-t): 150 mg/m2, AUC 0–8 h, Study B; for Cmax / half-life: 150 mg/m2, Study B; for half-life: read-out: t ½ (converted); for Clearance / DV (distribution volume): in vivo
Procedure: (§1) Study B involved 9 healthy dogs (8 females and 1 male), including the 4 females from Study A after wash-out and upon confirmation of regular laboratory evaluations. […] Tolerability evaluations were performed via clinical examinations and blood sampling for laboratory evaluation after each treatment. For toxicity assessments, 4, 6, and 8 h after the final administration, the animals were euthanized for tissue collection and histopathological evaluation.
In Studies A and B, an intravenous catheter was placed in the cephalic vein of each animal’s right and left anterior limbs. […] Under both protocols, blood samples were centrifuged at 1500× g at 4 °C for 10 min.
For the mobile phase, acetonitrile (ACN, J.T.Baker®, Philadelphia, PA, USA) and water with 1% acetic acid (J.T.Baker®)were used. Briefly, aliquots of 200 µL of plasma or 100 µL of subcutaneous interstitial liquid were placed in a 1.5 mL microcentrifuge tube. Subsequently, 600 µL and 300 µL of ACN were added to all plasma and subcutaneous interstitial liquid samples, respectively. The mixture was vortexed for 30 s, followed by centrifugation at 3400× g for 10 min. Next, 500 µL of the plasma supernatant and 250 µL of the subcutaneous interstitial fluid were pipetted into a new vial. […] Data acquisition and processing were performed using LabSolutions software (Version 5.3).
Cmax, half-life (t ½), distribution volume, and clearance were also determined. Data were analyzed in Excel and WinNonlin using a mono-compartmental model.

[2] = parameters: method as in earlier work; settings: mice with MCF-7 breast tumors, 40 mg/kg intravenous dose; ref National Institute of Cancer's guide, https://dtp.cancer.gov/timeline/posters/AGG_Geldamycin.pdf; cited from earlier work
healthy dogs [3] = test: Study A dose-escalation protocol: tolerability, side and adverse effects; settings: for Animals with increases in AST in plasma: reversible
Source text: Control animals were the same dogs that, prior to treatment, received an intravenous injection of the placebo solution. After that, samples were collected for hematological and biochemical analyses, as described in Section 4.2, “Animal Selection and Care Procedures”.
Blood samples were collected for hematological (hemogram) and biochemical analyses, as described in Section 4.2, “Animal Selection and Care Procedures”. This study utilized a 6-step dose-escalation design for the treated dogs. […] Wash-out periods, ranging from 7 to 10 days, were observed between each dosage step. […] Blood samples were collected at various times, as specified in Section 4.4.1, “Peripheral Blood Sample Collection”. […] Peripheral blood samples for hematological and biochemical analyses were collected on days 2, 4, 7, and 10 [105].
Two separate clinical reports were used to document data obtained from clinical evaluations. A general clinical description was used to note the following information daily: whether the animal was alert, prostrate, depressed, apathetic or aggressive, drinking water, and eating food normally, as well as feces and urine evaluations and the presence of vomit. Every two days, we noted the following parameters: body temperature (°C, measured using a rectal thermometer), heart rate (beats/minute), respiratory rate (cycles/minute), external mucous membrane coloration (conjunctiva and oral), hydration (skin elasticity), superficial lymph node enlargement (submandibular and popliteal), stool consistency, presence of lesions or secretions in the eyes, presence of nasal secretion (quantity and type), coat status, presence of skin lesions and ectoparasites, temperament, presence of claudication, and coordination and balance. Hemograms were performed following blood collection. The following biochemical analyses were performed: total proteins, albumin (A), globulins (Gs), A/G ratio, total cholesterol, bilirubin, renal profile (urea and creatinine), and hepatic enzymatic profiles (ALP, ALT, AST, AF, and GGT).

healthy dogs [4] = test: Study B: histopathology of tissues after treatment; assay type: in vivo; settings: nine dogs, three IV doses of 150 mg/m^2
Procedure: as §1
Hemograms were performed following blood collection.

[5] = 1st of three IV administrations of 150 mg/m^2 at 48 h intervals
[6] = 2nd of three IV administrations of 150 mg/m^2 at 48 h intervals
[7] = 3rd of three IV administrations of 150 mg/m^2 at 48 h intervals
[8] = Study A, healthy dogs n = 4, single IV dose 50 mg/m^2
[9] = Study A, healthy dogs n = 4, single IV dose 100 mg/m^2
[10] = Study A, healthy dogs n = 4, single IV dose 150 mg/m^2
[11] = Study A, healthy dogs n = 4, single IV dose 200 mg/m^2
[12] = Study A, healthy dogs n = 4, single IV dose 250 mg/m^2

In the case of C=CCNC1=C2C[C@@H](C)C[C@H](OC)[C@H](O)[C@@H](C)/C=C(\C)[C@H](OC(N)=O)[C@@H](OC)/C=C\C=C(/C)C(=O)NC(=CC1=O)C2=O [17-AAG, 17-(allylamino)-17-demethoxygeldanamycin], the AUC(0-t) [1, 5] is reported as 6350 ± 432 ng·h/mL, the AUC(0-t) [1, 6] is reported as 7050 ± 382 ng·h/mL and the AUC(0-t) [1, 7] is reported as 6850 ± 69 ng·h/mL. It also gave a Cmax [1, 5] of 6310 ± 2200 ng/mL, a Cmax [1, 6] of 5910 ± 1130 ng/mL and a Cmax [1, 7] of 5250 ± 2780 ng/mL. For the same molecule, the half-life [1, 5] was 41.4 ± 13.2 min, the half-life [1, 6] was 41.4 ± 14.4 min and the half-life [1, 7] was 48.6 ± 21 min. For the same molecule, the Clearance ([1]; 1st administration) was 0.023 ± 0.002 L/m^2/h, the “DV (distribution volume)” value ([1]; 1st administration) was 0.029 ± 0.003 L/m^2 and the Clearance ([1]; 2nd administration) was 0.021 ± 0.001 L/m^2/h. The “DV (distribution volume)” value ([1]; 2nd administration) was 0.030 ± 0.002 L/m^2, the Clearance ([1]; 3rd administration) was 0.022 ± 0.002 L/m^2/h and the “DV (distribution volume)” value ([1]; 3rd administration) was 0.033 ± 0.003 L/m^2. For the same molecule, the maximum plasma half-life [2] was 264 min, the “Dogs with bloody diarrhea” value (healthy dogs [3]; Study A, 200 mg/m^2) was 75% and the “Dogs with bloody diarrhea” value (healthy dogs [3]; Study A, 250 mg/m^2) was 100%. For the same molecule, the “Animals presenting nausea during administration” value (healthy dogs [3]; Study A, dogs, 200 mg/m^2) was “all four animals”, the “Animals presenting nausea during administration” value (healthy dogs [3]; Study A, dogs, 250 mg/m^2) was “all four animals” and the “Animals with ALT alteration” value (healthy dogs [3]; [8]) was 1 (25%) N (%). For the same molecule, the “Animals with AST alteration” value (healthy dogs [3]; [8]) was 0 N (%), the “Animals with bloody diarrhea” value (healthy dogs [3]; [8]) was 0 N (%) and the “Animals with diarrhea (pasty feces)” value (healthy dogs [3]; [8]) was 0 N (%). For the same molecule, the Animals with erythema (healthy dogs [3]; [8]) was 0 N (%), the Animals with hyperthermia (healthy dogs [3]; [8]) was 0 N (%) and the Animals with nausea (healthy dogs [3]; [8]) was 0 N (%). For the same molecule, the Animals with pruritus (healthy dogs [3]; [8]) was 0 N (%), the Animals with vomit (healthy dogs [3]; [8]) was 0 N (%) and the “Animals with ALT alteration” value (healthy dogs [3]; [9]) was 2 (50%) N (%). For the same molecule, the “Animals with AST alteration” value (healthy dogs [3]; [9]) was 2 (50%) N (%), the “Animals with bloody diarrhea” value (healthy dogs [3]; [9]) was 0 N (%) and the “Animals with diarrhea (pasty feces)” value (healthy dogs [3]; [9]) was 1 (25%) N (%). For the same molecule, the Animals with erythema (healthy dogs [3]; [9]) was 0 N (%), the Animals with hyperthermia (healthy dogs [3]; [9]) was 0 N (%) and the Animals with nausea (healthy dogs [3]; [9]) was 0 N (%). For the same molecule, the Animals with pruritus (healthy dogs [3]; [9]) was 0 N (%), the Animals with vomit (healthy dogs [3]; [9]) was 0 N (%) and the “Animals with ALT alteration” value (healthy dogs [3]; [10]) was 3 (75%) N (%). The “Animals with AST alteration” value (healthy dogs [3]; [10]) was 2 (50%) N (%), the “Animals with bloody diarrhea” value (healthy dogs [3]; [10]) was 0 N (%) and the “Animals with diarrhea (pasty feces)” value (healthy dogs [3]; [10]) was 1 (25%) N (%). For the same molecule, the Animals with erythema (healthy dogs [3]; [10]) was 1 (25%) N (%), the Animals with hyperthermia (healthy dogs [3]; [10]) was 1 (25%) N (%) and the Animals with nausea (healthy dogs [3]; [10]) was 0 N (%). The Animals with pruritus (healthy dogs [3]; [10]) was 1 (25%) N (%), the Animals with vomit (healthy dogs [3]; [10]) was 0 N (%) and the “Animals with ALT alteration” value (healthy dogs [3]; [11]) was 3 (75%) N (%). The “Animals with AST alteration” value (healthy dogs [3]; [11]) was 4 (100%) N (%), the “Animals with bloody diarrhea” value (healthy dogs [3]; [11]) was 3 (75%) N (%) and the “Animals with diarrhea (pasty feces)” value (healthy dogs [3]; [11]) was 1 (25%) N (%). For the same molecule, the Animals with erythema (healthy dogs [3]; [11]) was 2 (50%) N (%), the Animals with hyperthermia (healthy dogs [3]; [11]) was 0 N (%) and the Animals with nausea (healthy dogs [3]; [11]) was 4 (100%) N (%). The Animals with pruritus (healthy dogs [3]; [11]) was 3 (75%) N (%), the Animals with vomit (healthy dogs [3]; [11]) was 1 (25%) N (%) and the “Animals with ALT alteration” value (healthy dogs [3]; [12]) was 4 (100%) N (%). For the same molecule, the “Animals with AST alteration” value (healthy dogs [3]; [12]) was 4 (100%) N (%), the “Animals with bloody diarrhea” value (healthy dogs [3]; [12]) was 4 (100%) N (%) and the “Animals with diarrhea (pasty feces)” value (healthy dogs [3]; [12]) was 1 (25%) N (%). The Animals with erythema (healthy dogs [3]; [12]) was 4 (100%) N (%), the Animals with hyperthermia (healthy dogs [3]; [12]) was 1 (25%) N (%) and the Animals with nausea (healthy dogs [3]; [12]) was 4 (100%) N (%). For the same molecule, the Animals with pruritus (healthy dogs [3]; [12]) was 4 (100%) N (%), the Animals with vomit (healthy dogs [3]; [12]) was 1 (25%) N (%) and the “Animals with increases in AST in plasma” value (healthy dogs [3]; dogs, 100 mg/m^2) was 50%. The “Animals with increases in AST in plasma” value (healthy dogs [3]; dogs, 150 mg/m^2) was 50%, the “Animals with increases in AST in plasma” value (healthy dogs [3]; dogs, 200 mg/m^2) was 100% and the “Animals with increases in AST in plasma” value (healthy dogs [3]; dogs, 250 mg/m^2) was 100%. For the same molecule, the maximum tolerable dose (healthy dogs [3]; dogs, Study A, IV) was 150 mg/m^2 and the “Histopathological alterations in the lung and heart” value (healthy dogs [4]) was “no histopathological alterations”.
